# Measurements taken from patent publication US9670223B2, “Compounds with super-aspirin effects” (SOLVOTRIN THERAPEUTICS LTD., priority 2011, dated 2017).
# Where two headings read alike, the source gives them in different places.
# Legend:
# [1] = tested on: platelet rich plasma (PRP); test: U46619-induced platelet aggregation in PRP; type: cell-based, human
# Description: Platelet aggregation was measured by light aggregometry. […] Aggregation was initiated by the addition of agonists, and monitored by Aggro-Link software for at least 6 min.
# [2] = tested on: platelet rich plasma (PRP); test: Collagen-induced platelet aggregation in platelet rich plasma (light aggregometry); type: cell-based; settings: Homo sapiens, collagen (5 µg/mL), values without †, read-out: IC50 (PRP, 95% CI)
# [3] = Plasma pharmacokinetics of aspirin and metabolites after single oral gavage dose; type: in vivo, cynomolgus monkey; settings: cynomolgus monkey, plasma, read-out: modeled AUC of Aspirin
# Description: The objectives of this study are to determine the comparative clinical efficacy as determined by TxB2 suppression with single oral gavage dose administration of Aspirin, ST0702 and ST0702 Micronised to the cynomolgus monkey. Aspirin pharmacokinetics were compared using Area Under the Curve (AUC) calculations.
# The objectives of this study are to determine the comparative pharmacokinetics of ST0702 at 9.6 and 4.8 mg/Kg with single oral gavage dose administration to the cynomolgus monkey and to determine dose-response effects.
# Although the half life of the Isosorbide 2 salicylate 5 nicotinate metabolite is very short in-vitro, we investigated the serum taken from Cynomologus Monkeys participating in Study 2B above. The comparative pharmacokinetics of Isosorbide 2 salicylate 5 nicotinate from Monkeys receiving a single oral gavage dose of micronized ST0702 at 9.6 and 4.8 mg/Kg were evaluated. The concentrations of the breakdown products of ISANA were quantified using LCMS methods.
# Animals are acclimated to the oral gavage procedure for at least 3 days prior to the commencement of dose formulation administration. Deionized water is administered by oral gavage using a disposable catheter attached to a plastic syringe at a dose volume of 5 mL/kg. Animals are treated at approximately the same time on each dosing day. Dose formulations are administered by oral gavage using a disposable catheter attached to a plastic syringe. Following each daily dose, the gavage tube is rinsed with 6 mL of Ultra Pure water into the animal's stomach. Each animal will be dosed with a clean gavage tube on each dosing occasion. The dosing volume is 10 mL/kg. Each actual volume administered will be based on the most recent practical body weight of each animal. The dose formulations will be stirred continuously during dose administration.
# Samples are mixed gently and placed on crushed wet ice until centrifugation, which are carried out as soon as practical. The samples are centrifuged for approximately 10 minutes in a refrigerated centrifuge (approximately 4° C.) at 2700 rpm. The resultant plasma are separated, transferred to uniquely labeled clear polypropylene tubes, and frozen immediately over dry ice and transferred to a freezer set to maintain −80° C. The plasma samples are transferred to the bioanalytical laboratory at the Testing Facility.
# Plasma samples are analyzed for concentration of Aspirin, Salicylic Acid and Nicotinic Acid using a qualified analytical procedure. Analysis are performed by LC MS/MS under Analytical Procedure. Data collection is performed using Analyst from AB Sciex. […]
# [4] = tested on: platelet rich plasma (PRP); settings: values marked † From Reference 7, read-out: IC50 (PRP, 95% CI); cited from earlier work
# washed platelet samples = test: Arachidonic acid-induced platelet aggregation; type: cell-based, human; settings: n=4
# CaCo2 cells = test: Tumour cell-induced platelet aggregation (TCIPA), static conditions, Caco-2
# Description: Three human tumor cell lines, 59M ovarian adenocarcinoma, Caco-2 colon adenocarcinoma and HT1080 fibrocarcinoma cells, were obtained from the European Cell Culture Collection. Cell lines were cultured as monolayers in 75 ml culture flasks at 37° C. in a humidified atmosphere with 5% CO2. 59M cells and HT1080 were cultured in Dulbecco's […] (DMEM) supplemented with 10% fetal bovine serum (FBS) and gentamycin (0.05 mg/ml), penicillin (0.06 mg/ml), and streptomycin (0.01 mg/ml). Caco-2 cell line was cultured in Minimum Essential Medium (MEM) supplemented with 20% FBS and the same antibiotics as above. The cells were supplied with fresh medium and subcultured three times each week.
# Washed platelet suspensions (2.5×10^11 platelets 1^−1) were prepared from blood an mixed with the anticoagulant sodium citrate (0.315% final concentration).
# The interactions between platelets and tumor cells were measured by light aggregometry (Alonso-Escolano et al., 2004; Jurasz et al., 2001b; Radomski et al., 1991). […] TCIPA was initiated by the addition of cancer cells, and monitored by Aggro-Link software for at least 30 min. […]
# To study whether or not aspirin prodrugs had any direct effect on tumour cells, nictoinate was preincubated with different cell lines and added to the platelet suspension. TCIPA was monitored for at least 30 min.
Structure (SMILES),inhibitory effect on platelet aggregation induced by U46619 [1],IC50 [2] [µM],"AUC ([3]; oral, Phase 2B text, Aspirin 4.2 mg/Kg dose) [ng·h/mL]","AUC ([3]; Phase 2A, Aspirin 4.2 mg/Kg oral) [ng·h/mL]",IC50 [4] [µM],effect on arachidonic acid (100 μM)-induced aggregation (washed platelet samples),effect on TCIPA when tumour cells were preincubated with compound (CaCo2 cells; Caco2 cells preincubated),"inhibition of TCIPA induced by Caco-2 (CaCo2 cells; static, WP, 300 and 500 μM, CaCo2 1.5×10^3/ml)"
CC(=O)Oc1ccccc1C(=O)O [Aspirin],Neither aspirin nor the aspirin prodrugs had any inhibitory effect,90,923,870,92,abolished,–,–
"CC(=O)Oc1ccccc1C(=O)O[C@H]1CO[C@H]2[C@@H]1OC[C@H]2OC(=O)c1cccnc1 [ST0702, isosorbide-2-aspirinate-5-nicotinate]",–,–,–,–,–,–,no effect on TCIPA,consistently inhibited TCIPA
